Experimental data as given in patent EP0533825B1, “ETHER LIPID-NUCLEOSIDE COVALENT CONJUGATES” (WAKE FOREST UNIVERSITY, priority 1990, dated 1991).

How the values were obtained:
CEM-SS cells [1] = assay: Cell cytotoxicity (Table 1); assay type: cell-based; settings: read-out: Inhibitory Concentration50 For: Cell Cyto-toxicity
CEM-SS cells [2] = assay: CEM-SS cell growth, 3H-Tdr pulse labelling to measure DNA synthesis; assay type: cell-based; settings: Homo sapiens, 48 hours at 37°C, then 3H-Tdr pulse for 8 hours
Experimental: To determine the IC₅₀ for cell growth, CEM-SS cells in suspension culture (10,000 cells/ml RPMI-1640 growth medium) were incubated with serial dilutions of compound at 37°C for 48 hours and then pulsed labelled with 1 microCi of ³H-Tdr (SA = 20 Ci/mmole) for 8 hours at 37°C to measure DNA synthesis.

HIV-1 [3] = settings: persistently infected monocyte/macrophage (U1) cells
Source text: Anti-HIV1 Activity of Lipid-Nucleoside Conjugates. […] In brief, CEM-SS cell monolayers were infected with HIV-1. […] Plaques were counted at five days after infection. In this assay HIV-1 syncytial plaques are seen as large, multicellular foci (10 to 25 nuclei/syncytium) that appear either brown and granular or clear. Silnce the number of HIV-1 syncytial plaques correlates with reverse transcriptase (RT) and p24 core antigen activity in the HIV-1 infected cell overlay fluids, the syncytial plaque assay can be used to quantify the amount of infectious virus. […] The activity of p24 core antigen induced by HIV-1 infection of CEM-SS cells was measured spectrophotometrically using the commercial Coulter EIA.
(§1) Anti-HIV1 Activity of Lipid-Nucleoside Conjugates in Monocyte/Macrophages. Monocyte/macrophages represent a major reservoir of HIV-1 in the infected human host. […] However, these cells tend to be resistent to dideoxynucleoside prodrugs due to low levels of kinases needed to activate the prodrugs. See C. […]

HIV-1 [4] = settings: persistently infected monocyte/macrophage (U1) cells; remark: listed apart in the source
Source text: as §1

## O=c1[nH]cnc2c1ncn2[C@H]1CC[C@@H](CO)O1 [DDI, dideoxyinosine]
CEM-SS cells [1]; Homo sapiens, CEM-SS
  IC50: > 100 µM

## CCCCCCCCCCCCCCCCSCC(COP(=O)(O)OC[C@H]1O[C@@H](n2cc(C)c(=O)[nH]c2=O)C[C@@H]1N=[N+]=[N-])OC (stereo partly drawn) [Compound C, 3'-Azido-3'-deoxythymidine-5'-monophosphate-D,L-3-hexadecylthio-2-methoxypropane]
CEM-SS cells [1]; Homo sapiens, CEM-SS
  IC50: 29.2 ± 5.7 µM

## CCCCCCCCCCCCCCCCCC(=O)NCC(COP(=O)([O-])OC(CC(=O)OC[C@H]1O[C@@H](n2cc(C)c(=O)[nH]c2=O)C[C@@H]1N=[N+]=[N-])C[N+](C)(C)C)OCC (stereo partly drawn) [BB, 3'-Azido-3-deoxythymidine-5'-butyrate-γ-N,N,N-trimethyl-ammonium-β-(1-phospho-2-ethoxy-3-octadecanamidopropane)]
CEM-SS cells [2]
  IC50: 13.7 µM

## 3'-Azido-3'-deoxythymidine-5'-monophosphate-D,L-3-octadecanamido-2-ethoxypropane [Compound A]
CEM-SS cells [1]
  IC50: 53.8 µM

## Cc1cn([C@H]2C[C@H](N=[N+]=[N-])[C@@H](CO)O2)c(=O)[nH]c1=O [AZT, 3'-azido-3'-deoxythymidine]
CEM-SS cells [1]; Homo sapiens, CEM-SS
  IC50: 5.6 µM
HIV-1 [3]
  Percent of Control (RT DPM): 90% of Control
  Percent of Control (p24 Core Ag): 101% of Control
CEM-SS cells [2]
  IC50: 5.1 µM
HIV-1 [4]
  Percent of Control (PFU): 87% of Control

## CCCCCCCCCCCCCCCCOCC(COP(=O)([O-])OC(CC(=O)OC[C@H]1O[C@@H](n2cc(C)c(=O)[nH]c2=O)C[C@@H]1N=[N+]=[N-])C[N+](C)(C)C)OCC (stereo partly drawn) [Compound AA, 3'-Azido-3'-deoxythymidine-5'-butyrate-γ-N,N,N-trimethyl-ammonium-β-(1-phospho-2-ethoxy-3-hexadecyloxypropane)]
CEM-SS cells [2]
  IC50: 13.5 µM

## CCCCCCCCCCCCCCCCOCC(COP(=O)(O)OC[C@H]1O[C@@H](n2cc(C)c(=O)[nH]c2=O)C[C@@H]1N=[N+]=[N-])OCC (stereo partly drawn) [Compound B, 3'-Azido-3'-deoxythymidine-5'-monophosphate-D,L-3-hexadecyloxy-2-ethoxypropane]
CEM-SS cells [1]; Homo sapiens, CEM-SS
  IC50: 35 ± 2.1 µM
